Assay results taken from publication PMC11780470 (ACS Omega, 2025).

Biological target: Indole amine 2,3-dioxygenase 1 (IDO1) (Homo sapiens, UniProt P14902)
Test: IDO1 enzyme
Format: biochemical

Sequence of Indole amine 2,3-dioxygenase 1 (IDO1) (P14902 whole entry): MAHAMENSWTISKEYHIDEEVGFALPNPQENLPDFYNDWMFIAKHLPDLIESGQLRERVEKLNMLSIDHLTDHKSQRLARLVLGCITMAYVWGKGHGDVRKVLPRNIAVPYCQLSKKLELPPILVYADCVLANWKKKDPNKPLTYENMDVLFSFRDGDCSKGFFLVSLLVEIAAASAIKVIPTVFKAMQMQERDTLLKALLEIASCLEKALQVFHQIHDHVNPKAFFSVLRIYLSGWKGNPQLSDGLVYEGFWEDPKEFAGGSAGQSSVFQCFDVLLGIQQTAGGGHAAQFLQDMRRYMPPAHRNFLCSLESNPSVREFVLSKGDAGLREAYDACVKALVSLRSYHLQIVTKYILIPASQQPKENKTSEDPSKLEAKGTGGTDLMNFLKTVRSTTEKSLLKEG

SMILES: O=C1c2ccccc2-n2c1nc1ccccc1c2=O [TRYP, indolo [2,1-b]quinazoline-6,12-dione]
- IC50: 17.3 µM
